For the data set the following is noted: rat, in vivo. The text has this: To address some of these potential drawbacks, as described above, high resolution white light and multispectral (700 and 800 nm) fluorescence images may be captured off the block after every pass of the micro- or macrotome blade using an intraoperative fluorescence imaging system, thus vastly improving the amount of information captured throughout the specimen and decreasing total acquisition time. Generally, the process of fluorescent and high resolution white light data collection and subsequent co-registration and/or three-dimensional reconstruction, is referred to herein as cryofluorescence tomography or FHT.
To investigate the ability of FHT to study the physiology of the brain, XenoLight RediJect 2-Deoxy-D-glucose (2-DG, PerkinElmer, 750 nm excitation), a fluorescent glucose metabolism tracer, was injected into the intrathecal space of a rat. After 1.5 hours of distribution, the animal was sacrificed, the brain tissue excised, and the sample was cryopresevered in OCT. With each pass of the microtome blade (25 micron spacing), a high resolution white light and fluorescent image was acquired.
Further, to study the anatomy of ventricles and subarachnoid space, a fluorescent zwitterionic compound ZW800-1 (Curadel, LLC) was injected into the rat intrathecal space. This compound is not expected to cross into the brain parenchyma due to its chemical properties. […]

Regarding “XenoLight RediJect 2-Deoxy-D-glucose [2-DG]”, the “fluorescence signal in brain parenchyma” value is given as “taken up in the brain parenchyma”.

Values taken from patent publication US12292437B2, “Fluorescence histo-tomography (FHT) systems and methods” (Emit Imaging, Inc., priority 2015, dated 2025).
